This note sets out measurements from US20240301409A1, “Chemically Modified Small Activating RNA” (RACTIGEN THERAPEUTICS, priority 2021, published 2024).

For data set [1], the system named is Rag1-40 target sequence in the 3′ UTR of firefly luciferase, COS-1 cells.
Protocol: A 26 bp fragment comprising the target site of Rag1-40 was cloned in the antisense orientation into the 3′ UTR region of the firefly luciferase gene in a pmirGLO dual luciferase vector. Vector plasmids were co-transfected with the indicated saRNAs into COS-1 cells. Cells were lysed 48 hours after transfection, and the resulting lysates were assessed for luciferase activity. Data represent mean±SD of at least two independent experiments. Dashed line represents comparisons to blank control (top dashed line) and Rag1-40 (bottom dashed line). Values close to the top dashed line indicate no off-target effect.
A 26 bp fragment comprising the Rag1-40 target sequence was cloned in the antisense orientation into a multiple cloning site (MCS) of the 3′ untranslated region of firefly luciferase of the pmirGLO dual luciferase vector (Promega, Fitchburg, WI), to obtain pOff-Target plasmid. Following E. coli transformation and overnight incubation, plasmids for each construct were prepared by standard method. Each plasmid was transfected into COS-1 monkey kidney epithelial cells using Lipofectamine 3000 (Invitrogen, Carlsbad, CA). Subsequently, saRNA was transfected using RNAiMAX. After 24 hours of incubation, COS-1 cells were lysed with 1× lysis buffer, and luciferase activity was measured using dual luciferase reporter gene assay system (Promega, WI, USA) following manufacturer's instructions.
To assess the off-target effects of unmodified and modified saRNAs, a sequence complementary to the sense oligonucleotide strand of Rag1-40 was cloned into the 3′UTR region of the luciferase gene in a pmirGLO dual luciferase vector. The vector plasmid was co-transfected with the saRNA into COS-1 cells. Cells were lysed 48 hours after transfection and the resulting lysates were assessed for luciferase activity.
For data set [2], the system named is p21 gene. Nature of the data set: p21 mRNA expression by RT-qPCR in T24 cells. As to conditions: 10 nM. Format: cell-based, human. On the procedure: (§1) Ku-7-LG and T24 cells were transfected with the indicated saRNA at a final concentration of 10 nM for 3 days. After transfection, the RNA was extracted with the Qiagen RNeasy kit. After reverse transcription, the ABI 7500 fast real-time PCR system was used for qPCR amplification. The GAPDH gene was amplified as an internal reference. […] Dashed line indicates duplex Rag1-40 with no chemical modification in comparison, and the values above the line indicate stronger activity. The control was blank transfection without oligonucleotide. dsCon2 is transfected with a double-stranded scramble RNA. The value of the ordinate represents the mean±SD of 2 repeated treatments.
(§2) The control and dsCon2 were blank transfection and scramble dsRNA transfection, respectively. The values in the ordinate represent the mean±SD of 2 repeated treatments.
(§3) Human bladder cancer cells Ku-7-LG (ATCC), J82 (ATCC) and T24 (ATCC) were cultured in McCoy medium (Gibco) comprising 10% calf serum (Sigma-Aldrich) and 1% penicillin/Streptomycin (Gibco). Cells were cultured at 37° C. under 5% CO2. Ku-7-LG, J82 and T24 cells were plated into 12-well plates at 10×10^4 cells per well, transfected with the small RNA at a concentration of 10 nM (unless otherwise specified) for three days, using RNAiMax (Invitrogen, Carlsbad, CA) according to the manufacturer's instructions. Two replicate wells were set for each treatment.
(§4) After transfection, the medium was discarded and to each well 500 μl cell lysate was added and incubated at room temperature for 5 minutes. RNA was extracted with the Qiagen RNeasy kit, and after reverse transcription, qPCR analysis was performed on the ABI 7500 Fast Real-time PCR system (Applied Biosystems). Each sample was amplified in 3 replicate wells.
(§5) The PCR reaction conditions are: 95° C. for 30 seconds, 95° C. for 5 seconds, 60° C. for 30 seconds, and 40 cycles of amplification. The GAPDH gene was amplified as an internal reference at the same time. p21 was amplified with the p21F1/R1 primer pair, and the specific sequences of the amplification primers are shown in Table 1.
(§6) In order to calculate the expression value (Erel) of p21 (target gene) of a saRNA transfection sample relative to the control treatment, Formula 1 is used to input the Ct values of the target gene and the internal reference gene for calculation.
(§7) wherein, CtTm is the Ct value of the target gene from the control treatment sample; CtTs is the Ct value of the target gene from the saRNA treated sample; CtRm is the Ct value of the internal reference gene from the control treatment sample; and CtRs is the Ct value of the internal reference gene from the saRNA treated sample.
(§8) The main purpose of introducing chemical modifications to regulatory oligonucleotides of a gene is to improve their pharmaceutical properties, including enhancing in vivo stability and mitigating off-target effects (e.g., sequence-dependent targeting of unrelated genes, sequence-dependent or independent immune stimulation), while maintaining their gene regulatory capacity (gene knockdown or activation). To assess the effect of chemical modification on the RNAa activity of saRNA on the p21 gene, 10 nM unmodified (Rag1-40) and modified (Rag1-40-1 to Rag1-40-34) duplexes were transfected into Ku-7-LG and T24 cells, respectively. After 72 hours, the mRNA expression level of p21 was assessed by RT-qPCR. All duplexes induced p21 mRNA expression in all […] at least double that of the control.
(§9) In order to further evaluate the expression level of p21 mRNA after the different durations of treatment by the chemically modified saRNA duplexes, two saRNAs (RAG1-40-31 and RAG1-40-53) were randomly selected from the above chemically modified saRNA duplexes for detection. RAG1-40-31 and RAG1-40-53 were transfected into Ku-7-LG and T24 cells at a final concentration of 10 nM, for 1, 2, 3, 4, 7 and 9 days, respectively. Each treatment was set up in duplicate. […]

In data set [3] the test system is p21 gene. Nature of the data set: p21 mRNA expression by RT-qPCR in Ku-7-LG cells. Format: cell-based, human. As to conditions: 10 nM. On the procedure: as §1, §2, §3, §4, §5, §6, §7, §8, §9

Turning to “RAG1-40-31: saRNA duplex: sense fCfCAACUCAUUCUCCAAG*U*C (SEQ ID NO 16); antisense U*A*fCfUfUGGAGAAfUGAGfUfUGG*fC*A (SEQ ID NO 12) (sense CCAACUCAUUCUCCAAGUC; antisense UACUUGGAGAAUGAGUUGGCA; 2'-F and phosphorothioate modifications; modified_base (1)..(2) (1,2)=2′-fluoro; modified_base (17)..(19) (17,18,19)=phosphorothioate (PS) backbone modification; modified_base (2)..(21) (2,3,19,20,21)=phosphorothioate (PS) backbone modification; modified_base (3)..(20) (3,4,5,12,16,17,20)=2′-fluoro)”, in data set [1], the “off-target effect compared to unmodified Rag1-40, in words” value was “mitigated or similar off-target effects”. The “increase of expression level of p21 mRNA compared with the control group” value worked out at 2.1 fold in the data set with p21 gene [2] (1 day); 3.7 fold in the data set on p21 gene [2] (2 days); 4.7 fold in the data set with p21 gene [2] (3 days); 3.3 fold in the data set on p21 gene [2] (4 days); 1.2 fold with p21 gene [2] (7 days); 1.3 fold in the data set on p21 gene [2] (9 days). The “increase of expression level of p21 mRNA compared with the control group” value in the data set with p21 gene [3] (1 day) worked out at 1.3 fold; with p21 gene [3] (2 days), 11.4 fold; in the data set on p21 gene [3] (3 days), 8.7 fold; in the data set on p21 gene [3] (4 days) it was 6.1 fold; in the data set on p21 gene [3] (7 days), 2.6 fold; with p21 gene [3] (9 days) it was 3.8 fold. The “RNA activation activity (p21 mRNA), in words” value in the data set with p21 gene [2] (72 hours, compared with unmodified Rag1-40 unless worded otherwise) is on record as “reduced activity”.
